# Columns and labels:
# [1] = target: human V1a receptor (Homo sapiens, UniProt P37288); assay: Cellular in vitro assay for determining vasopressin receptor activity, V1a receptor cell line (photoprotein luminescence); format: cell-based; details: for IC50: CHO cell line transfected with the human V1a receptor, agonist [Arg8]-vasopressin at EC50 concentration, read-out: IC50 hV1a; for ratio IC50 hV2/hV1a: selectivity ratio of the cellular IC50 values
# Description: (§1) B-1. Cellular In Vitro Assay for Determining Vasopressin Receptor Activity
# (§2) The identification of agonists and antagonists of the V1a and V2 vasopressin receptors from humans, rats and dogs as well as the quantification of the activity of the compounds of the invention is carried out using recombinant cell lines. These cell lines originally derive from a hamster's ovary epithelial cell (Chinese Hamster Ovary, CHO K1, ATCC: American Type Culture Collection, Manassas, Va. 20108, USA). The test cell lines constitutively express the human, rat or dog V1a or V2 receptors. In case of the Gαq-coupled V1a receptors, cells are also stably transfected with a modified form of the calcium-sensitive photoproteins aequorin (human and rat V1a) or obelin (dog V1a), which, after reconstitution with the cofactor coelenterazine, emit light when there are increases in free calcium concentrations [Rizzuto R, Simpson A W, Brini M, Pozzan T, Nature 358, 325-327 (1992); Illarionov B A, Bondar V S, Illarionova V A, Vysotski E S, Gene 153 (2), 273-274 (1995)]. The resulting vasopressin receptor cells react to stimulation of the recombinantly expressed V1a receptors by intracellular release of calcium ions, which can be quantified by the resulting photoprotein luminescence. The Gs-coupled V2 receptors are stably transfected into cell lines expressing the gene for firefly luciferase under control of a CRE-responsible promoter. Activation of V2 receptors induces the activation of the CRE-responsive promoter via cAMP increase, thereby inducing the expression of firefly luciferase. The light emitted by photoproteins of V1a cell lines as well as the light emitted by firefly luciferase of V2 cell lines corresponds to the activation or inhibition of the respective vasopressin receptor. The bioluminescence of the cell lines is detected using a suitable luminometer [Milligan G, Marshall F, Rees S, Trends in Pharmacological Sciences 17, 235-237 (1996)].
# Vasopressin V1a Receptor Cell Lines:
# On the day before the assay, the cells are plated out in culture medium (DMEM/F12, 2% FCS, 2 mM glutamine, 10 mM HEPES, 5 μg/ml coelenterazine) in 384-well microtiter plates and kept in a cell incubator (96% humidity, 5% v/v CO2, 37° C.). On the day of the assay, test compounds in various concentrations are placed for 10 minutes in the wells of the microtiter plate before the agonist [Arg^8]-vasopressin at EC50 concentration is added. The resulting light signal is measured immediately in a luminometer.
# (§3) Table 1A below lists individual IC50 values for the compounds of the invention (including racemic mixtures as well as separated enantiomers) that were obtained from cell lines transfected with the human V1a or V2 receptor: […]
# [2] = target: T1, human V2 receptor (Homo sapiens, UniProt P30518); assay: Cellular in vitro assay for determining vasopressin receptor activity, V2 receptor cell line (CRE-luciferase); format: cell-based; details: CHO cell line transfected with the human V2 receptor; agonist [Arg8]-vasopressin at EC50 concentration; read-out: IC50 hV2
# T1 construct: expressed in transfected cells; host or cells: CHO K1 (ATCC) expressing firefly luciferase under a CRE-responsive promoter
# T1 sequence (P30518 whole entry): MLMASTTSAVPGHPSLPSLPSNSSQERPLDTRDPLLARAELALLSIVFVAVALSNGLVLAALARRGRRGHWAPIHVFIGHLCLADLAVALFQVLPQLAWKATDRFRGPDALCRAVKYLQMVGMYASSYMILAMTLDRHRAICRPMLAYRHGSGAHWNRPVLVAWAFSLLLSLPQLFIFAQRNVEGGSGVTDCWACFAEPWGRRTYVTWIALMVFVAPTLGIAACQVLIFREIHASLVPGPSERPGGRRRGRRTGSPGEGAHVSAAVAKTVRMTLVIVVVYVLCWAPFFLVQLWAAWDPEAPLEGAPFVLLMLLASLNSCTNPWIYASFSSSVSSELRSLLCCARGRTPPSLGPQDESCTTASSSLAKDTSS
# Description: as §1, §2
# Vasopressin V2 Receptor Cell Lines:
# On the day before the assay, the cells are plated out in culture medium (DMEM/F12, 2% FCS, 2 mM glutamine, 10 mM HEPES) in 384-well microtiter plates and kept in a cell incubator (96% humidity, 5% v/v CO2, 37° C.). On the day of the assay, test compounds in various concentrations and the agonist [Arg^8]-vasopressin at EC50 concentration are added together to the wells, and plates are incubated for 3 hours in a cell incubator. Upon addition of the cell lysis reagent Triton™ and the substrate luciferin, luminescence of firefly luciferase is measured in a luminometer.
# as §3
# Chain of human V1a receptor (P37288 whole entry): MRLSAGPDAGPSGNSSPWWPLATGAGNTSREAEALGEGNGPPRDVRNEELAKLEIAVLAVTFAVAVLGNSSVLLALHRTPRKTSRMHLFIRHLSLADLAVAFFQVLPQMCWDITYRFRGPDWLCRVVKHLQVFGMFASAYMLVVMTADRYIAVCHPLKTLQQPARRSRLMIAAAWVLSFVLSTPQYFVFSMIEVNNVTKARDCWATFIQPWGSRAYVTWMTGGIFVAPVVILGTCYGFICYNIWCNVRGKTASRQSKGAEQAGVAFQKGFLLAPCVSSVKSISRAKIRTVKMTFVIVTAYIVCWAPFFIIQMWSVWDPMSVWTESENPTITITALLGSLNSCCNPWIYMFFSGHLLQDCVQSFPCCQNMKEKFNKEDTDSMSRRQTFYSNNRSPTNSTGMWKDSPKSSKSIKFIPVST
smiles,measurement,setting,value
"O=C1CCC(CNc2nc(Cn3nc(-c4ccc(Cl)cc4)n(C[C@H](O)C(F)(F)F)c3=O)nn2-c2ccccc2Cl)N1 (mixture of isomers) [Example 63, 5-(4-Chlorophenyl)-2-{[1-(2-chlorophenyl)-5-({[5-oxopyrrolidin-2-yl]methyl}amino)-1H-1,2,4-triazol-3-yl]methyl}-4-[(2S)-3,3,3-trifluoro-2-hydroxypropyl]-2,4-dihydro-3H-1,2,4-triazol-3-one]",IC50,[1],0.42 nM
same,ratio IC50 hV2/hV1a,[1],14.0
same,IC50,[2],5.8 nM
O=c1n(Cc2nc(N3CCNC(C(F)(F)F)C3)n(-c3ccccc3Cl)n2)nc(-c2ccc(Cl)cc2)n1C[C@H](O)C(F)(F)F (mixture of isomers) [Example 66],IC50,[1],0.37 nM
same,ratio IC50 hV2/hV1a,[1],18.9
same,IC50,[2],6.9 nM
"O=C1CC(Nc2nc(Cn3nc(-c4ccc(Cl)cc4)n(C[C@H](O)C(F)(F)F)c3=O)nn2-c2ccccc2Cl)CN1 (mixture of isomers) [Example 69, 5-(4-Chlorophenyl)-2-{[1-(2-chlorophenyl)-5-{[5-oxopyrrolidin-3-yl]amino}-1H-1,2,4-triazol-3-yl]methyl}-4-[(2S)-3,3,3-trifluoro-2-hydroxypropyl]-2,4-dihydro-3H-1,2,4-triazol-3-one]",IC50,[1],1.05 nM
same,ratio IC50 hV2/hV1a,[1],4.2
same,IC50,[2],4.35 nM
"O=c1n(Cc2nc(N3CCOC(C(F)(F)F)C3)n(-c3ccccc3Cl)n2)nc(-c2ccc(Cl)cc2)n1C[C@H](O)C(F)(F)F (mixture of isomers) [Example 77, 5-(4-Chlorophenyl)-2-({1-(2-chlorophenyl)-5-[2-(trifluoromethyl)morpholin-4-yl]-1H-1,2,4-triazol-3-yl}methyl)-4-[(2S)-3,3,3-trifluoro-2-hydroxypropyl]-2,4-dihydro-3H-1,2,4-triazol-3-one]",IC50,[1],1.5 nM
same,ratio IC50 hV2/hV1a,[1],26.0
same,IC50,[2],39 nM
"O=C1CCC(Nc2nc(Cn3nc(-c4ccc(Cl)cc4)n(C[C@H](O)C(F)(F)F)c3=O)nn2CCC(F)(F)F)CN1 (mixture of isomers) [Example 99, 5-{[3-({3-(4-Chlorophenyl)-5-oxo-4-[(2S)-3,3,3-trifluoro-2-hydroxypropyl]-4,5-dihydro-1H-1,2,4-triazol-1-yl}methyl)-1-(3,3,3-trifluoropropyl)-1H-1,2,4-triazol-5-yl]amino}piperidin-2-one]",IC50,[1],10.2 nM
same,ratio IC50 hV2/hV1a,[1],34.5
same,IC50,[2],350 nM
"O=c1n(Cc2nc(N3CCOC(C(F)(F)F)C3)n(CCC(F)(F)F)n2)nc(-c2ccc(Cl)cc2)n1C[C@H](O)C(F)(F)F (mixture of isomers) [Example 103, 5-(4-Chlorophenyl)-4-[(2S)-3,3,3-trifluoro-2-hydroxypropyl]-2-({5-[2-(trifluoromethyl)morpholin-4-yl]-1-(3,3,3-trifluoropropyl)-1H-1,2,4-triazol-3-yl}methyl)-2,4-dihydro-3H-1,2,4-triazol-3-one]",IC50,[1],30 nM
same,ratio IC50 hV2/hV1a,[1],8.2
same,IC50,[2],245 nM
"O=c1n(Cc2nc(N3CCNC(C(F)(F)F)C3)n(CCC(F)(F)F)n2)nc(-c2ccc(Cl)cc2)n1C[C@H](O)C(F)(F)F (mixture of isomers) [Example 106, 5-(4-Chlorophenyl)-4-[(2S)-3,3,3-trifluoro-2-hydroxypropyl]-2-({5-[3-(trifluoromethyl)piperazin-1-yl]-1-(3,3,3-trifluoropropyl)-1H-1,2,4-triazol-3-yl}methyl)-2,4-dihydro-3H-1,2,4-triazol-3-one]",IC50,[1],26.5 nM
same,ratio IC50 hV2/hV1a,[1],11.7
same,IC50,[2],310 nM
"NC(CNc1nc(Cn2nc(-c3ccc(Cl)cc3)n(C[C@H](O)C(F)(F)F)c2=O)nn1-c1ccccc1Cl)C(F)(F)F (single isomer, unassigned) [Example 7]",IC50,[1],0.22 nM
same,ratio IC50 hV2/hV1a,[1],5.2
same,IC50,[2],1.12 nM
"NC(CNc1nc(Cn2nc(-c3ccc(Cl)cc3)n(C[C@H](O)C(F)(F)F)c2=O)nn1-c1ccccc1Cl)C(F)(F)F (single isomer, unassigned) [Example 8]",IC50,[1],0.31 nM
same,ratio IC50 hV2/hV1a,[1],5.5
same,IC50,[2],1.69 nM

# — patent US11331314B2, “Amine substituted triazole derivatives and uses thereof” (Bayer Pharma Aktiengesellschaft, priority 2017, dated 2022)
